Assay results from patent US20030162815A1, “Thiazolidinedione salt for treatment of diabetes mellitus” (priority 2003, published 2003).

Assays:
Assay type in all cases: physicochemical
[1] = Flow properties of the Hydrobromide (Hausner Ratio, bulk density vs tapped bulk density); settings: ratio between bulk density and tapped bulk density; product of Example 3
Protocol: The ratio between the bulk density and the tapped bulk density (Hausner Ratio) of the Hydrobromide was determined using standard methods (“Pharmaceutics—The Science of Dosage Form Design”, editor M. Aulton, 1988, published by: Churchill Livingstone).

[2] = Solid state stability of the Hydrobromide (storage for 1 month, HPLC assay for final content and degradation products); settings: product of Example 3
Protocol: The solid state stability of the drug substance was determined by storing approximately 1.0 g of the material in a glass bottle at i) 40° C./75% Relative Humidity (RH), open exposure, for 1 month and b) at 50° C., closed, for 1 month. The material was assayed by HPLC for final content and degradation products in both cases.

[3] = Solubility of the Hydrobromide in water (visual, confirmed by HPLC assay of a saturated solution); settings: thermodynamic from solid, product of Example 3
Source text: The visual solubility was confirmed by an HPLC assay of a saturated solution.

Br.CN(CCOc1ccc(CC2SC(=O)NC2=O)cc1)c1ccccn1 (stereo not drawn) [Hydrobromide, 5-[4-[2-(N-methyl-N-(2-pyridyl)amino)ethoxy]benzyl]thiazolidine-2,4-dione hydrobromide]
Hausner Ratio [1]: 1.3 | Solid state stability: HPLC assay ([2]; 40° C./75% RH, open exposure): 98 % initial | Solid state stability: degradation ([2]; 40° C./75% RH, open exposure): No significant degradation observed | Solid state stability: HPLC assay ([2]; 50° C., closed): 98 % initial | Solid state stability: degradation ([2]; 50° C., closed): No significant degradation observed | solubility [3]: 6000 µg/mL
